# Laboratory results reported in publication PMC10767194 (The Journal of Biological Chemistry, 2023).
# Columns and labels:
# [1] = biological target: T1, Cdk12/CycK (Homo sapiens, UniProt Q9NYV4); assay: radioactive in vitro kinase assay, Cdk12/CycK; format: biochemical; details: 0, 0.1, 1, 10, 100 μM compound, 0.2 μM Cdk12, 0.2 mM ATP, His-c-Myc, 20 min
# T1 construct: GST (TEV site) (N, cleaved yes); made in house; host or cells: Sf9 insect cells, co-expressed with S. cerevisiae CAK1
# Description: To a concentration of 0.2 μM kinase and 0.2 mM ATP, a compound concentration ranging from 0.1 nM to 1 mM was applied. Kinase reactions were started by the addition of 100 μM CTD peptide containing three hepta-repeats continuously prephosphorylated at position S7 (pS7-CTD[3]) and terminated after 60 min incubation time. In vitro IC50-values were determined by applying a sigmoidal fit to dose-response measurements (Fig. 1A).
# Cdk12 kinase (0.2 μM) in the presence of 0.2 mM ATP were supplemented with respective compounds at concentrations of 0, 0.1, 1, 10, and 100 μM for 5 min. Upon addition of 50 μM His-c-Myc substrate the kinase assay reaction was conducted for 20 min.
# Radioactive kinase activity assays were performed in a total volume of 15 μl per sample in kinase assay buffer (50 mM Hepes/pH 7.6, 34 mM KCl, 7 mM MgCl2, 5 mM β-glycerol phosphate, and 2.5 mM dithioerythritol). Preincubation of 0.2 μM or 0.02 μM recombinant protein kinase with indicated concentrations of respective inhibitor and 0.2 to 2 mM ATP containing 0.45 mCi [^32P]-γ-ATP/ml (PerkinElmer) was carried out for 5 min. Kinase reactions were started by addition of substrate protein (10 μM GST-Rb1 for Cdk4/CycD3, 10 μM GST-CTD[52] for Cdk7/CycH/MAT1, 50 μM His-c-Myc for all others) and incubated for 20 min at 30 °C in a shaking incubator at 300 rpm. For pS7-CTD[3] peptide, the substrate concentration was increased to 100 μM and assays were performed for 60 min. Reactions were terminated by the addition of EDTA to a final concentration of 50 mM. Reaction samples were separately spotted onto Amersham Protran nitrocellulose membranes (GE HealthCare) and subsequently washed three times for 5 min in PBS. Samples were transferred to 4 ml liquid scintillation vials and 2 ml liquid scintillator (Ultima Gold) were added. Radioactive counts were determined in a Beckman Liquid Scintillation Counter (Beckman Coulter) for 1 min. […] For analysis of dose response measurements and IC50 value determination, data of inhibitor-supplemented samples were normalized to DMSO solvent controls and their activity plotted against the inhibitor concentration. IC50 values were extracted from triplicate measurements by sigmoidal curve fitting using DataGraph (v. 5.0; https://www.visualdatatools.com/DataGraph/) or were determined by applying the Morrison quadratic equation for tight binding inhibitors using GraphPad Prism 10 (https://www.graphpad.com/) ([40]).
# [2] = biological target: T2, Cdk10/CycQ (Homo sapiens, UniProt Q15131); assay: radioactive in vitro kinase assay, Cdk10/CycQ; format: biochemical; details: 0.2 mM ATP
# T2 construct: Full-length, human, WT Cdk10 (residues 1–360, UniProt Q15131); made in house; host or cells: Sf9 insect cells
# T2 sequence (Q15131 whole entry, the tested form may be a part): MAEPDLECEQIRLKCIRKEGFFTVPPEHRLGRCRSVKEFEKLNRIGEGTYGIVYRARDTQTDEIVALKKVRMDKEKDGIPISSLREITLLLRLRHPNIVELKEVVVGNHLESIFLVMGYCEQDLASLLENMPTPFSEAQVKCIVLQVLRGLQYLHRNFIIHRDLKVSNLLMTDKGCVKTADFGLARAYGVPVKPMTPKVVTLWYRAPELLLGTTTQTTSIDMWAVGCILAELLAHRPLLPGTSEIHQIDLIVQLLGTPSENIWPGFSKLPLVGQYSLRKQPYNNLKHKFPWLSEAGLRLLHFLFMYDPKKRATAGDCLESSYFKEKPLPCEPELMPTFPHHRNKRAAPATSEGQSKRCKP
# T2 sequence (Q8N1B3 whole entry partner, the tested form may be a part): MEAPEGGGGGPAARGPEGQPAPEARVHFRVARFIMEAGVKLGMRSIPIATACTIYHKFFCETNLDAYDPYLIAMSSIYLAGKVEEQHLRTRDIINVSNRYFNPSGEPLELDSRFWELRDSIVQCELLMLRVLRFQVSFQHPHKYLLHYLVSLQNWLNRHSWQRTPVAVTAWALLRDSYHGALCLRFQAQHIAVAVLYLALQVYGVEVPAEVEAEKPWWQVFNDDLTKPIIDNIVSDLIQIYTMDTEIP
# Description: (§1) Radioactive kinase activity assays were performed in a total volume of 15 μl per sample in kinase assay buffer (50 mM Hepes/pH 7.6, 34 mM KCl, 7 mM MgCl2, 5 mM β-glycerol phosphate, and 2.5 mM dithioerythritol). Preincubation of 0.2 μM or 0.02 μM recombinant protein kinase with indicated concentrations of respective inhibitor and 0.2 to 2 mM ATP containing 0.45 mCi [^32P]-γ-ATP/ml (PerkinElmer) was carried out for 5 min. Kinase reactions were started by addition of substrate protein (10 μM GST-Rb1 for Cdk4/CycD3, 10 μM GST-CTD[52] for Cdk7/CycH/MAT1, 50 μM His-c-Myc for all others) and incubated for 20 min at 30 °C in a shaking incubator at 300 rpm. For pS7-CTD[3] peptide, the substrate concentration was increased to 100 μM and assays were performed for 60 min. Reactions were terminated by the addition of EDTA to a final concentration of 50 mM. […] Radioactive counts were determined in a Beckman Liquid Scintillation Counter (Beckman Coulter) for 1 min. […] IC50 values were extracted from triplicate measurements by sigmoidal curve fitting using DataGraph (v. 5.0; https://www.visualdatatools.com/DataGraph/) or were determined by applying the Morrison quadratic equation for tight binding inhibitors using GraphPad Prism 10 (https://www.graphpad.com/) ([40]).
# [3] = tested on: T3, Cdk7/CycH; assay: radioactive in vitro kinase assay, Cdk7/CycH; format: biochemical, human; details: 0, 0.1, 1, 10, 100 μM compound, 0.2 μM kinase, 0.2 mM ATP
# T3 construct: Full-length, human, WT Cdk7 (residues 1–346, UniProt P50613); made in house; host or cells: Sf9 insect cells
# Description: as §1
# [4] = tested on: Cdk8/CycC; assay: radioactive in vitro kinase assay, Cdk8/CycC; format: biochemical, human; details: 0, 0.1, 1, 10, 100 μM compound, 0.2 μM kinase, 0.2 mM ATP
# Description: as §1
# [5] = biological target: T4, Cdk9/CycT1 (Homo sapiens, UniProt P50750); assay: radioactive in vitro kinase assay, Cdk9/CycT1; format: biochemical; details: 0, 0.1, 1, 10, 100 μM compound, 0.2 μM kinase, 0.2 mM ATP
# T4 construct: Full-length, human, WT Cdk9 (residues 1–372, UniProt P50750); made in house; host or cells: Cdk9: Sf9 insect cells; CycT1: E. coli
# T4 sequence (P50750 whole entry, the tested form may be a part): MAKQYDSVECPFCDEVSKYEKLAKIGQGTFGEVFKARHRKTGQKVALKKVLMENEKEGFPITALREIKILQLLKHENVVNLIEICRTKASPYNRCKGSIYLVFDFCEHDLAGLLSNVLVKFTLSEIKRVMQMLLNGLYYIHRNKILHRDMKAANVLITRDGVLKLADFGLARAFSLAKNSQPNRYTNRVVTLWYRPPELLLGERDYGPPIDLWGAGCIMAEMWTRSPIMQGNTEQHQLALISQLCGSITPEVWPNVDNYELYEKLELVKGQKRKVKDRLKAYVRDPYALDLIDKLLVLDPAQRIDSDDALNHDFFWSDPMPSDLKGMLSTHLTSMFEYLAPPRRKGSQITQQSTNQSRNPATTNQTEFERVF
# T4 sequence (O60563 1-272 partner limits assumed): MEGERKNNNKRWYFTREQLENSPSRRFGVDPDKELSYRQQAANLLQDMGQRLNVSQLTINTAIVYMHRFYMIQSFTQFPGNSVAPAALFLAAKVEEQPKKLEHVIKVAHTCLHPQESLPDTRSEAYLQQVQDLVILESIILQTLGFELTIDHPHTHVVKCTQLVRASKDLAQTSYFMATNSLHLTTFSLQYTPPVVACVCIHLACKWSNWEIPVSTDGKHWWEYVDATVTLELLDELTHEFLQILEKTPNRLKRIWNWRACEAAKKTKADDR
# Description: as §1
# [6] = tested on: T5, HIPK1; assay: radioactive in vitro kinase assay, HIPK1; format: biochemical, human; details: 0, 0.1, 1, 10, 100 μM compound, 0.2 μM kinase, 0.2 mM ATP
# T5 construct: human HIPK1 (residues 154–554, UniProt Q86Z02); made in house; host or cells: Sf9 insect cells
# Description: as §1
# [7] = tested on: T6, HIPK2; assay: radioactive in vitro kinase assay, HIPK2; format: biochemical, human; details: 0, 0.1, 1, 10, 100 μM compound, 0.2 μM kinase, 0.2 mM ATP
# T6 construct: human HIPK2 (residues 160–563, UniProt Q9H2X6); made in house; host or cells: Sf9 insect cells
# Description: as §1
# [8] = biological target: T1, Cdk12/CycK; assay: nanoDSF thermal protein stability, Cdk12/CycK; format: binding; details: 5 μM protein
# Description: (§2) At 10 μM concentration, the thermal shift observed was +4.7 °C, while at 100 μM the thermal stability was increased by +6.2 °C (Table S2) compared to a DMSO control. Together, the results obtained from both SPR and nanoDSF measurements align well with the IC50 values determined for Cdk12∗/CycK and Cdk13∗/CycK kinases.
# (§3) For identification of thermal protein stability, nanoDSF experiments were conducted using a Prometheus NT.48 (NanoTemper) instrument. […] at the wavelengths λ = 330 and 350 nm were monitored at an excitation power of 25% in a temperature range from 20 to 90 °C with a slope of 1.5 °C/min. The measurement was conducted and evaluated with the PR.ThermControl software (https://nanotempertech.com/prometheus/nt48-software/). Experiments were conducted in duplicates.
# [9] = biological target: T7, Cdk13/CycK (Homo sapiens, UniProt Q14004); assay: nanoDSF thermal protein stability, Cdk13/CycK; format: binding; details: 5 μM protein
# T7 construct: The kinase domain of human Cdk13 (residues 694–1039, UniProt Q14004); made in house; host or cells: Sf9 insect cells, co-expressed with CAK1
# T7 sequence (Q14004 694-1039): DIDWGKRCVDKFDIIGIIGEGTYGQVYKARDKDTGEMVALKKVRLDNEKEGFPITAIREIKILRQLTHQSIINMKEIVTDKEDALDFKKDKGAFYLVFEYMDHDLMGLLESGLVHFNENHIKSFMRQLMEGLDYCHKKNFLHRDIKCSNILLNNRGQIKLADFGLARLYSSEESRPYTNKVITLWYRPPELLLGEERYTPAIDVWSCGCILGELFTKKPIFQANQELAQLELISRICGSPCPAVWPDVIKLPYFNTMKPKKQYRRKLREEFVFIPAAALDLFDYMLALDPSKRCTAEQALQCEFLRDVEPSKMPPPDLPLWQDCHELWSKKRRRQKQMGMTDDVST
# T7 sequence (O75909 1-267 partner limits assumed): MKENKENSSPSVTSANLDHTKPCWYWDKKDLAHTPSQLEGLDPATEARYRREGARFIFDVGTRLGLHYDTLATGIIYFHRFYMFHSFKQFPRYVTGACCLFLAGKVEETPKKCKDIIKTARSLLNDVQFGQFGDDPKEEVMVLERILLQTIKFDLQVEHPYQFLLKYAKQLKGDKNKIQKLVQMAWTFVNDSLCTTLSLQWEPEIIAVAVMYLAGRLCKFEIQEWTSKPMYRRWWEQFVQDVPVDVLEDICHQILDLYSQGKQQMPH
# Description: as §2, §3
# T1 sequence (Q9NYV4 714-1063): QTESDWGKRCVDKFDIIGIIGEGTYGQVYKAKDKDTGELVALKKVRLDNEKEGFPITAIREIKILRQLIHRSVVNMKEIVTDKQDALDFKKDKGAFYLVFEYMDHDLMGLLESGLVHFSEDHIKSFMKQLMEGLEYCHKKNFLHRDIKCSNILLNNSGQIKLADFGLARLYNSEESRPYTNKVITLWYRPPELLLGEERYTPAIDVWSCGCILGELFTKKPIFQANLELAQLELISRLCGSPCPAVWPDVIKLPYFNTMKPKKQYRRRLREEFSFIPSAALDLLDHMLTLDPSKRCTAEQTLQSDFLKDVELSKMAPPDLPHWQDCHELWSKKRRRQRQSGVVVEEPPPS
# T1 sequence (O75909 1-267 partner limits assumed): as the sequence (O75909 1-267 partner limits assumed) above
smiles,measurement,setting,value
Cn1cc(-n2cnc3c(NCc4nc5cc(Cl)c(Cl)cc5[nH]4)nc(N4CCOCC4)nc32)cn1 [SR-4835],"inhibitory effect on Cdk12/CycK activity, in words",[1],modest effects
same,inhibition of Cdk10/CycQ activity,"[2]; 0, 0.1, 1, 10, 100 μM compound, 0.2 μM kinase",moderate SR-4835 concentration dependent decrease
same,IC50,"[2]; concentration range 1 nM to 1 mM, sigmoidal fit",1.07 µM
same,inhibition of Cdk7 activity,[3],no inhibitory activity
same,inhibition of Cdk8 activity,[4],no inhibitory activity
same,inhibition of Cdk9 activity,[5],no inhibitory activity
same,inhibition of HIPK1 activity,[6],not inhibited
same,inhibition of HIPK2 activity,[7],not inhibited
same,"Tm, Cdk12/CycK",[8]; 1 μM compound,51.45 °C
same,"∆Tm to DMSO control, Cdk12/CycK",[8]; 1 μM compound,+0.80 °C
same,"Tm, Cdk12/CycK",[8]; 10 μM compound,58.70 °C
same,"Tm, Cdk12/CycK",[8]; 100 μM compound,60.45 °C
same,"Tm, Cdk13/CycK",[9]; 1 μM compound,54.40 °C
same,"∆Tm to DMSO control, Cdk13/CycK",[9]; 1 μM compound,+0.25 °C
same,"Tm, Cdk13/CycK",[9]; 10 μM compound,58.80 °C
same,"Tm, Cdk13/CycK",[9]; 100 μM compound,60.30 °C
